Results as given in ChEMBL document CHEMBL6115030, “Systematic All-Hydrocarbon Stapling Analysis for Cecropin A Generates a Potent and Stable Antimicrobial Peptide” (J Med Chem, 2025).
Values after ≈ are worked out from the molar mass of the structure shown. Numbered stars: 1 amine (or outer) side, 2 acyl side, 3 side chain; on linkers, the order of the positions; unused ones are H or OH. Bridge positions count the residues as written; N and C are the ends. Square brackets hold non-standard residues; d marks the D form. Peptide text beside a SMILES is read from it. ξ: configuration not given here. ξαMeNle(6-ylidene) = CC(CCCC=[*:3])(N[*:1])C(=O)[*:2]; S5 = C=CCCC[C@](C)(N)C(=O)O

Columns and labels:
Staphylococcus aureus = experiment: Antibacterial activity against Staphylococcus aureus ATCC 25923 assessed as inhibition of bacterial growth measured after 24 hrs by broth microdilution method; type: functional
Klebsiella pneumoniae [1] = experiment: Antibacterial activity against Klebsiella pneumoniae ATCC 13883 assessed as inhibition of bacterial growth measured after 24 hrs by broth microdilution method; type: functional
[2] = Hemolytic activity in human RBC assessed as hemolysis incubated for 1 hr by microplate reader; type: toxicity, cell-based, Erythrocyte; conditions: erythrocyte, 1 h
Pseudomonas aeruginosa [3] = experiment: Antibacterial activity against Pseudomonas aeruginosa PAO1 assessed as inhibition of bacterial growth measured after 24 hrs by broth microdilution method; type: functional
Salmonella typhimurium = experiment: Antibacterial activity against Salmonella typhimurium assessed as inhibition of bacterial growth measured after 24 hrs by broth microdilution method; type: functional, Salmonella enterica subsp. enterica serovar Typhimurium; conditions: Salmonella enterica
Shigella flexneri = experiment: Antibacterial activity against Shigella flexneri 301 assessed as inhibition of bacterial growth measured after 24 hrs by broth microdilution method; type: functional
Pseudomonas aeruginosa [4] = experiment: Antibacterial activity against Pandrug-resistant Pseudomonas aeruginosa assessed as inhibition of bacterial growth measured after 24 hrs by broth microdilution method; type: functional
Acinetobacter baumannii = experiment: Antibacterial activity against Pandrug-resistant Acinetobacter baumannii assessed as inhibition of bacterial growth measured after 24 hrs by broth microdilution method; type: functional
Pseudomonas aeruginosa [5] = experiment: Antibacterial activity against Carbapenem-resistant Pseudomonas aeruginosa assessed as inhibition of bacterial growth measured after 24 hrs by broth microdilution method; type: functional
Klebsiella pneumoniae [6] = experiment: Antibacterial activity against Carbapenem-resistant Klebsiella pneumoniae assessed as inhibition of bacterial growth measured after 24 hrs by broth microdilution method; type: functional

SMILES	MIC (Staphylococcus aureus) [µM]	MIC (Klebsiella pneumoniae [1]) [µM]	Activity [2]	MIC (Pseudomonas aeruginosa [3]) [µM]	MIC (Salmonella typhimurium) [µM]	MIC (Shigella flexneri) [µM]	MIC (Pseudomonas aeruginosa [4]) [µM]	MIC (Acinetobacter baumannii) [µM]	MIC (Pseudomonas aeruginosa [5]) [µM]	MIC (Klebsiella pneumoniae [6]) [µM]
CC[C@H](C)[C@H](NC(=O)CNC(=O)[C@H](CC(=O)O)NC(=O)[C@H](CCCNC(=N)N)NC(=O)[C@@H](NC(=O)[C@H](CC(N)=O)NC(=O)[C@H](CCC(N)=O)NC(=O)CNC(=O)[C@@H](NC(=O)[C@H](CCCCN)NC(=O)[C@H](CCC(=O)O)NC(=O)[C@@H](NC(=O)[C@H](CCCCN)NC(=O)[C@H](CCCCN)NC(=O)[C@H](Cc1ccccc1)NC(=O)[C@H](CC(C)C)NC(=O)[C@H](CCCCN)NC(=O)[C@H](Cc1c[nH]c2ccccc12)NC(=O)[C@H](CCCCN)NC(C)=O)[C@@H](C)CC)C(C)C)[C@@H](C)CC)C(=O)N[C@H](C(=O)N[C@@H](CCCCN)C(=O)N[C@@H](C)C(=O)NCC(=O)N1CCC[C@H]1C(=O)N[C@@H](C)C(=O)N[C@H](C(=O)N[C@@H](C)C(=O)N[C@H](C(=O)N[C@H](C(=O)NC1(C)CCC/C=C\CCC[C@@](C)(C(=O)N[C@H](C(=O)N[C@@H](C)C(=O)N[C@@H](CCCCN)C(N)=O)[C@@H](C)CC)NC(=O)[C@H]([C@@H](C)O)NC(=O)[C@H](C)NC(=O)[C@H](CCC(N)=O)NC1=O)C(C)C)C(C)C)C(C)C)[C@@H](C)CC (stereo not given in full) (Ac-KWKLFKKIEKVGQNIRDGIIKAGPAVAVV[ξαMeNle(6-ylidene)]QAT[S5]IAK-NH2; staple (Z) 30-34)	3.13 (≈ 12.9 µg/mL)	6.25 (≈ 25.7 µg/mL)	Non-toxic	6.25 (≈ 25.7 µg/mL)						
CC[C@H](C)[C@H](NC(=O)CNC(=O)[C@H](CC(=O)O)NC(=O)[C@H](CCCNC(=N)N)NC(=O)[C@@H](NC(=O)[C@H](CC(N)=O)NC(=O)[C@H](CCC(N)=O)NC(=O)CNC(=O)[C@@H](NC(=O)[C@H](CCCCN)NC(=O)[C@H](CCC(=O)O)NC(=O)[C@@H](NC(=O)[C@H](CCCCN)NC(=O)[C@H](CCCCN)NC(=O)[C@H](Cc1ccccc1)NC(=O)[C@H](CC(C)C)NC(=O)[C@H](CCCCN)NC(=O)[C@H](Cc1c[nH]c2ccccc12)NC(=O)[C@H](CCCCN)NC(C)=O)[C@@H](C)CC)C(C)C)[C@@H](C)CC)C(=O)N[C@H](C(=O)N[C@@H](CCCCN)C(=O)N[C@@H](C)C(=O)NCC(=O)N1CCC[C@H]1C(=O)N[C@@H](C)C(=O)N[C@H](C(=O)N[C@@H](C)C(=O)N[C@H](C(=O)N[C@H](C(=O)NCC(=O)N[C@@H](CCC(N)=O)C(=O)N[C@@]1(C)CCC/C=C/CCC[C@@](C)(C(=O)N[C@@H](CCCCN)C(N)=O)NC(=O)[C@H]([C@@H](C)CC)NC(=O)[C@H](CCC(N)=O)NC(=O)[C@H]([C@@H](C)O)NC1=O)C(C)C)C(C)C)C(C)C)[C@@H](C)CC (Ac-KWKLFKKIEKVGQNIRDGIIKAGPAVAVVGQ[S5]TQI[S5]K-NH2; staple (E) 32-36)	1.56 (≈ 6.48 µg/mL)	3.13 (≈ 13 µg/mL)		6.25 (≈ 26 µg/mL)	3.13 (≈ 13 µg/mL)	< 0.78	25 (≈ 104 µg/mL)	< 0.78	> 100	3.13 (≈ 13 µg/mL)
CC[C@H](C)[C@H](NC(=O)CNC(=O)[C@H](CC(=O)O)NC(=O)[C@H](CCCNC(=N)N)NC(=O)[C@@H](NC(=O)[C@H](CC(N)=O)NC(=O)[C@H](CCC(N)=O)NC(=O)CNC(=O)[C@@H](NC(=O)[C@H](CCCCN)NC(=O)[C@H](CCC(=O)O)NC(=O)[C@@H](NC(=O)[C@H](CCCCN)NC(=O)[C@H](CCCCN)NC(=O)[C@H](Cc1ccccc1)NC(=O)[C@H](CC(C)C)NC(=O)[C@H](CCCCN)NC(=O)[C@H](Cc1c[nH]c2ccccc12)NC(=O)[C@H](CCCCN)NC(C)=O)[C@@H](C)CC)C(C)C)[C@@H](C)CC)C(=O)N[C@H](C(=O)N[C@@H](CCCCN)C(=O)N[C@@H](C)C(=O)NCC(=O)N1CCC[C@H]1C(=O)N[C@@H](C)C(=O)N[C@H](C(=O)N[C@@H](C)C(=O)N[C@@]1(C)CCC/C=C\CCC[C@@](C)(C(=O)N[C@H](C(=O)N[C@@H](CCC(N)=O)C(=O)N[C@H](C(=O)N[C@@H](C)C(=O)N[C@@H](CCCCN)C(N)=O)[C@@H](C)CC)[C@@H](C)O)NC(=O)[C@H](CCC(N)=O)NC(=O)CNC(=O)[C@H](C(C)C)NC1=O)C(C)C)[C@@H](C)CC (Ac-KWKLFKKIEKVGQNIRDGIIKAGPAVA[S5]VGQ[S5]TQIAK-NH2; staple (Z) 28-32)	3.13 (≈ 12.9 µg/mL)	3.13 (≈ 12.9 µg/mL)		6.25 (≈ 25.8 µg/mL)	6.25 (≈ 25.8 µg/mL)	1.56 (≈ 6.44 µg/mL)	25 (≈ 103 µg/mL)	< 0.78	> 100	6.25 (≈ 25.8 µg/mL)
CC[C@H](C)[C@H](NC(=O)CNC(=O)[C@H](CC(=O)O)NC(=O)[C@H](CCCNC(=N)N)NC(=O)[C@@H](NC(=O)[C@H](CC(N)=O)NC(=O)[C@H](CCC(N)=O)NC(=O)CNC(=O)[C@@H](NC(=O)[C@H](CCCCN)NC(=O)[C@H](CCC(=O)O)NC(=O)[C@@H](NC(=O)[C@H](CCCCN)NC(=O)[C@H](CCCCN)NC(=O)[C@]1(C)CCC/C=C\CCC[C@](C)(NC(C)=O)C(=O)N[C@@H](Cc2c[nH]c3ccccc23)C(=O)N[C@@H](CCCCN)C(=O)N[C@@H](CC(C)C)C(=O)N1)[C@@H](C)CC)C(C)C)[C@@H](C)CC)C(=O)N[C@H](C(=O)N[C@@H](CCCCN)C(=O)N[C@@H](C)C(=O)NCC(=O)N1CCC[C@H]1C(=O)N[C@@H](C)C(=O)N[C@H](C(=O)N[C@@H](C)C(=O)N[C@H](C(=O)N[C@H](C(=O)NCC(=O)N[C@@H](CCC(N)=O)C(=O)N[C@@H](C)C(=O)N[C@H](C(=O)N[C@@H](CCC(N)=O)C(=O)N[C@H](C(=O)N[C@@H](C)C(=O)N[C@@H](CCCCN)C(N)=O)[C@@H](C)CC)[C@@H](C)O)C(C)C)C(C)C)C(C)C)[C@@H](C)CC (Ac-[S5]WKL[S5]KKIEKVGQNIRDGIIKAGPAVAVVGQATQIAK-NH2; staple (Z) 1-5)	> 100	12.5 (≈ 50.3 µg/mL)		> 100						
CC[C@H](C)[C@H](NC(=O)[C@H](CCC(N)=O)NC(=O)[C@@H](NC(=O)[C@H](C)NC(=O)[C@H](CCC(N)=O)NC(=O)CNC(=O)[C@@H](NC(=O)[C@@H](NC(=O)[C@H](C)NC(=O)[C@@H](NC(=O)[C@H](C)NC(=O)[C@@H]1CCCN1C(=O)CNC(=O)[C@H](C)NC(=O)[C@H](CCCCN)NC(=O)[C@@H](NC(=O)[C@@H](NC(=O)[C@]1(C)CCC/C=C\CCC[C@](C)(NC(=O)[C@H](CCC(N)=O)NC(=O)CNC(=O)[C@@H](NC(=O)[C@H](CCCCN)NC(=O)[C@H](CCC(=O)O)NC(=O)[C@@H](NC(=O)[C@H](CCCCN)NC(=O)[C@H](CCCCN)NC(=O)[C@H](Cc2ccccc2)NC(=O)[C@H](CC(C)C)NC(=O)[C@H](CCCCN)NC(=O)[C@H](Cc2c[nH]c3ccccc23)NC(=O)[C@H](CCCCN)NC(C)=O)[C@@H](C)CC)C(C)C)C(=O)N[C@@H]([C@@H](C)CC)C(=O)N[C@@H](CCCNC(=N)N)C(=O)N[C@@H](CC(=O)O)C(=O)N1)[C@@H](C)CC)[C@@H](C)CC)C(C)C)C(C)C)C(C)C)[C@@H](C)O)C(=O)N[C@@H](C)C(=O)N[C@@H](CCCCN)C(N)=O (Ac-KWKLFKKIEKVGQ[S5]IRD[S5]IIKAGPAVAVVGQATQIAK-NH2; staple (Z) 14-18)	> 100	> 100		> 100						
CC[C@H](C)[C@@H]1NC(=O)CNC(=O)[C@H](CC(=O)O)NC(=O)[C@@](C)(NC(=O)[C@@H](NC(=O)[C@H](CC(N)=O)NC(=O)[C@H](CCC(N)=O)NC(=O)CNC(=O)[C@@H](NC(=O)[C@H](CCCCN)NC(=O)[C@H](CCC(=O)O)NC(=O)[C@@H](NC(=O)[C@H](CCCCN)NC(=O)[C@H](CCCCN)NC(=O)[C@H](Cc2ccccc2)NC(=O)[C@H](CC(C)C)NC(=O)[C@H](CCCCN)NC(=O)[C@H](Cc2c[nH]c3ccccc23)NC(=O)[C@H](CCCCN)NC(C)=O)[C@@H](C)CC)C(C)C)[C@@H](C)CC)CCC/C=C\CCC[C@@](C)(C(=O)N[C@@H](CCCCN)C(=O)N[C@@H](C)C(=O)NCC(=O)N2CCC[C@H]2C(=O)N[C@@H](C)C(=O)N[C@H](C(=O)N[C@@H](C)C(=O)N[C@H](C(=O)N[C@H](C(=O)NCC(=O)N[C@@H](CCC(N)=O)C(=O)N[C@@H](C)C(=O)N[C@H](C(=O)N[C@@H](CCC(N)=O)C(=O)N[C@H](C(=O)N[C@@H](C)C(=O)N[C@@H](CCCCN)C(N)=O)[C@@H](C)CC)[C@@H](C)O)C(C)C)C(C)C)C(C)C)NC1=O (Ac-KWKLFKKIEKVGQNI[S5]DGI[S5]KAGPAVAVVGQATQIAK-NH2; staple (Z) 16-20)	12.5 (≈ 50.3 µg/mL)	6.25 (≈ 25.2 µg/mL)		100 (≈ 403 µg/mL)						
CC[C@H](C)[C@H](NC(=O)CNC(=O)[C@H](CC(=O)O)NC(=O)[C@H](CCCNC(=N)N)NC(=O)[C@@H](NC(=O)[C@H](CC(N)=O)NC(=O)[C@H](CCC(N)=O)NC(=O)CNC(=O)[C@@H](NC(=O)[C@H](CCCCN)NC(=O)[C@H](CCC(=O)O)NC(=O)[C@@H](NC(=O)[C@H](CCCCN)NC(=O)[C@H](CCCCN)NC(=O)[C@H](Cc1ccccc1)NC(=O)[C@H](CC(C)C)NC(=O)[C@H](CCCCN)NC(=O)[C@H](Cc1c[nH]c2ccccc12)NC(=O)[C@H](CCCCN)NC(C)=O)[C@@H](C)CC)C(C)C)[C@@H](C)CC)C(=O)N[C@H](C(=O)N[C@@H](CCCCN)C(=O)N[C@@H](C)C(=O)NCC(=O)N1CCC[C@H]1C(=O)N[C@@H](C)C(=O)N[C@H](C(=O)N[C@@H](C)C(=O)N[C@H](C(=O)N[C@H](C(=O)NCC(=O)N[C@@]1(C)CCC/C=C\CCC[C@@](C)(C(=O)N[C@@H](C)C(=O)N[C@@H](CCCCN)C(N)=O)NC(=O)[C@H](CCC(N)=O)NC(=O)[C@H]([C@@H](C)O)NC(=O)[C@H](C)NC1=O)C(C)C)C(C)C)C(C)C)[C@@H](C)CC (Ac-KWKLFKKIEKVGQNIRDGIIKAGPAVAVVG[S5]ATQ[S5]AK-NH2; staple (Z) 31-35)	3.13 (≈ 12.7 µg/mL)	12.5 (≈ 50.7 µg/mL)	Non-toxic	12.5 (≈ 50.7 µg/mL)						
